Measured values taken from the OligoGym collection.
Bases are written 5' to 3'; sugars and linkages follow in the same order, as letters with counts (s phosphorothioate, o phosphodiester; PS: all linkages phosphorothioate). The collection does not say whether C is 5-methylated. l = locked nucleic acid (LNA); d = 2'-deoxy (DNA)

Each sequence was assayed against Tau (assay: rat primary cortical neurons, FLIPR, 25 uM ASO).

| Sequence | calcium oscillation score |
| --- | --- |
| GAGCCACACTTGGAGGTCAC (sugars l3 d14 l3, PS) | 0 % of control |
| GAGGAACGTGTGGATG (sugars l3 d10 l3, PS) | 3.7 % of control |
| GAGGCACAAGTCCTTA (sugars l3 d10 l3, PS) | 76.2 % of control |
| GAGTCTACCATGTCGA (sugars l3 d10 l3, PS) | 65.2 % of control |
| GAGTGCTCTTAGCATC (sugars l3 d10 l3, PS) | 33.3 % of control |
| GAGTTTGTGCAAGGTC (sugars l3 d10 l3, PS) | 0 % of control |
| GATACATGCGTCCTTT (sugars l3 d10 l3, PS) | 110 % of control |
| GATACCCTTCCTCAGA (sugars l2 d12 l2, PS) | 30.9 % of control |
| GATACTCAAATTCTTCC (sugars l4 d10 l3, PS) | 67.8 % of control |
| GATATTCATTCCCTCAC (sugars l2 d11 l4, PS) | 57.2 % of control |
| GATATTCCACACATAA (sugars l4 d8 l4, PS) | 54.8 % of control |
| GATATTGTCCAGGGACCCAA (sugars l3 d14 l3, PS) | 9.97 % of control |
| GATCTTAGGCTGGC (sugars l3 d8 l3, PS) | 4.6 % of control |
| GATCTTAGGCTGGCC (sugars l3 d9 l3, PS) | 8.13 % of control |
| GATCTTAGGCTGGCCC (sugars l3 d10 l3, PS) | 90.7 % of control |
| GATGCAGGAGTTGTAA (sugars l3 d10 l3, PS) | 0 % of control |
| GATGGATGTTGCCTAATGAG (sugars l3 d14 l3, PS) | 0 % of control |
| GATGTTGCCTAATGAG (sugars l3 d10 l3, PS) | 0 % of control |
| GATGTTGCCTAATGAGCCAC (sugars l3 d14 l3, PS) | 4.52 % of control |
| GATTAACCAATTAACC (sugars l3 d10 l3, PS) | ≥ 200 % of control |
| GATTAACCAATTAACCGAAC (sugars l3 d14 l3, PS) | 98.8 % of control |
| GATTTTACTACTCTCTT (sugars l4 d9 l4, PS) | 85.5 % of control |

| Sequence | calcium oscillation score |
| --- | --- |
| GCAAACAGGATACAGT (sugars l3 d10 l3, PS) | 0 % of control |
| GCAAACCACTCTTATT (sugars l4 d10 l2, PS) | 95.4 % of control |
| GCAAACCACTCTTATTC (sugars l4 d10 l3, PS) | 86.8 % of control |
| GCAACAATCCAACCAC (sugars l2 d10 l4, PS) | 76.3 % of control |
| GCAACAATCCAACCACT (sugars l3 d12 l2, PS) | 65.4 % of control |
| GCAATAGCAAACAGG (sugars l3 d9 l3, PS) | 40.8 % of control |
| GCACCAGGAACCTTCCAGAA (sugars l3 d14 l3, PS) | 12.8 % of control |
| GCACCATATTACACCA (sugars l3 d11 l2, PS) | 95.9 % of control |
| GCACCCACTTTCCTAATT (sugars l2 d14 l2, PS) | 51.6 % of control |
| GCACCCTCCAAATCACCA (sugars l1 d15 l2, PS) | 50.6 % of control |
| GCAGACACCTCGTCAGCTAG (sugars l3 d14 l3, PS) | 59.6 % of control |
| GCAGAGGAACGTGTGG (sugars l3 d10 l3, PS) | 0 % of control |
| GCAGGCGCGAGCAG (sugars l3 d8 l3, PS) | 40.6 % of control |
| GCAGGCGCGAGCAGCG (sugars l3 d10 l3, PS) | 23.5 % of control |
| GCAGGTATCCAGCCATATTT (sugars l3 d14 l3, PS) | 29.4 % of control |
| GCAGGTTAAGTGATTAACCA (sugars l3 d14 l3, PS) | 36.3 % of control |
| GCATCAGAGGTTTCAG (sugars l3 d10 l3, PS) | 0 % of control |
| GCATGATTGTGGGC (sugars l3 d8 l3, PS) | 85.7 % of control |
| GCATGATTGTGGGCT (sugars l3 d9 l3, PS) | 0 % of control |
| GCATGATTGTGGGCTT (sugars l3 d10 l3, PS) | 47.4 % of control |
| GCATGCAGTTTATTCCTGGC (sugars l3 d14 l3, PS) | 4.03 % of control |
| GCCACACTTGGAGGTCACCT (sugars l3 d14 l3, PS) | 4.52 % of control |

| Sequence | calcium oscillation score |
| --- | --- |
| GCCACCTCCTGGTTTA (sugars l3 d10 l3, PS) | 86.1 % of control |
| GCCACCTCCTGGTTTATGAT (sugars l3 d14 l3, PS) | 31.6 % of control |
| GCCAGGGACGTGGGTGATAT (sugars l3 d14 l3, PS) | 0 % of control |
| GCCATATTTCAACTCTT (sugars l2 d11 l4, PS) | 57.7 % of control |
| GCCATTTTCCATATAAT (sugars l4 d11 l2, PS) | 37.5 % of control |
| GCCCACCCATCAATTTGGAA (sugars l3 d14 l3, PS) | 1.3 % of control |
| GCCCATTCTACCTGGCCCAT (sugars l3 d14 l3, PS) | 38.3 % of control |
| GCCCCACTTTTAATTAA (sugars l2 d11 l4, PS) | 86.2 % of control |
| GCCCTAAAGTCCCAG (sugars l3 d9 l3, PS) | 34.3 % of control |
| GCCCTAAAGTCCCAGG (sugars l3 d10 l3, PS) | 41.9 % of control |
| GCCTAATGAGCCACAC (sugars l3 d10 l3, PS) | 70.6 % of control |
| GCCTAATGAGCCACACTTGG (sugars l3 d14 l3, PS) | 16.6 % of control |
| GCCTCATAAACCTAAT (sugars l3 d9 l4, PS) | 68.2 % of control |
| GCCTCTAGCCACATGGACCC (sugars l3 d14 l3, PS) | 4.03 % of control |
| GCCTGATCACAAACCC (sugars l3 d10 l3, PS) | 144 % of control |
| GCCTTACTTTCTACTCA (sugars l2 d13 l2, PS) | 70.7 % of control |
| GCCTTACTTTCTACTCAA (sugars l2 d13 l3, PS) | 53.9 % of control |
| GCGACTTGTACACG (sugars l3 d8 l3, PS) | 63.7 % of control |
| GCGACTTGTACACGAT (sugars l3 d10 l3, PS) | 32.2 % of control |
| GCGACTTGTACACGATCTCC (sugars l3 d14 l3, PS) | 7.77 % of control |
| GCGAGTCTACCATGTC (sugars l3 d10 l3, PS) | 76 % of control |
| GCGAGTCTACCATGTCGATG (sugars l3 d14 l3, PS) | 0 % of control |

| Sequence | calcium oscillation score |
| --- | --- |
| GCGCAGGCGCGAGCAG (sugars l3 d10 l3, PS) | 0 % of control |
| GCGGAAGGTCAGCTTG (sugars l3 d10 l3, PS) | 25.9 % of control |
| GCGGCGCAGGCGCGAG (sugars l3 d10 l3, PS) | 73.6 % of control |
| GCGTGATCTTCCAT (sugars l3 d8 l3, PS) | 182 % of control |
| GCGTTCTCGCGGAA (sugars l3 d8 l3, PS) | 3.83 % of control |
| GCTAAGGCAAGGCCTA (sugars l3 d10 l3, PS) | 129 % of control |
| GCTCAGCTAAGACCCTCAGG (sugars l3 d14 l3, PS) | 29.4 % of control |
| GCTCCAACCACACCTT (sugars l2 d11 l3, PS) | 85 % of control |
| GCTCCAACCACACCTTT (sugars l2 d11 l4, PS) | 87.2 % of control |
| GCTCCATATTCCTGCCCAAG (sugars l3 d14 l3, PS) | 34.2 % of control |
| GCTCTTCAAATCATTC (sugars l4 d8 l4, PS) | 58.3 % of control |
| GCTCTTCAAATCATTCA (sugars l4 d11 l2, PS) | 81.1 % of control |
| GCTGAGGTGCTCTGGT (sugars l3 d10 l3, PS) | 19.2 % of control |
| GCTGGGTGGTGTCTTTGGAG (sugars l3 d14 l3, PS) | 0 % of control |
| GCTTAATAAACACCCTT (sugars l2 d11 l4, PS) | 68.5 % of control |
| GCTTCAGTCCTAATC (sugars l3 d9 l3, PS) | 11.5 % of control |
| GCTTCCAGTCCCGTCT (sugars l3 d10 l3, PS) | 104 % of control |
| GCTTTCCAATTCCCCA (sugars l2 d12 l2, PS) | 101 % of control |
| GCTTTCCAATTCCCCAT (sugars l2 d12 l3, PS) | 94.5 % of control |
| GCTTTTCCCAATTATTA (sugars l4 d11 l2, PS) | 62 % of control |
| GGAAAGATGAAATTTGCTCT (sugars l3 d14 l3, PS) | 74.1 % of control |
| GGAACTATTGATAA (sugars l3 d8 l3, PS) | 0 % of control |

| Sequence | calcium oscillation score |
| --- | --- |
| GGACGTGGGTGATATTGTCC (sugars l3 d14 l3, PS) | 0 % of control |
| GGACGTTGCTAAGATC (sugars l3 d10 l3, PS) | 3.32 % of control |
| GGAGGCAGACACCTCGTCAG (sugars l3 d14 l3, PS) | 51.8 % of control |
| GGAGTGCTCTTAGCATCAGA (sugars l3 d14 l3, PS) | 14.8 % of control |
| GGATGTTGCCTAATGA (sugars l3 d10 l3, PS) | 0 % of control |
| GGATGTTGCCTAATGAGCCA (sugars l3 d14 l3, PS) | 0 % of control |
| GGCATGATTGTGGGC (sugars l3 d9 l3, PS) | 5.22 % of control |
| GGCATGATTGTGGGCT (sugars l3 d10 l3, PS) | 6.12 % of control |
| GGCCACCTCCTGGTTT (sugars l3 d10 l3, PS) | 39.3 % of control |
| GGCCACCTCCTGGTTTATGA (sugars l3 d14 l3, PS) | 0 % of control |
| GGCCTGATCACAAACC (sugars l3 d10 l3, PS) | 132 % of control |
| GGCCTGATCACAAACCCTGC (sugars l3 d14 l3, PS) | 9.07 % of control |
| GGCGACTTGTACAC (sugars l3 d8 l3, PS) | 117 % of control |
| GGCGACTTGTACACGA (sugars l3 d10 l3, PS) | 69.4 % of control |
| GGCGACTTGTACACGATCTC (sugars l3 d14 l3, PS) | 46.6 % of control |
| GGCGAGTCTACCATGT (sugars l3 d10 l3, PS) | 43.4 % of control |
| GGCGAGTCTACCATGTCGAT (sugars l3 d14 l3, PS) | 91.5 % of control |
| GGCGCAGGCGCGAGCA (sugars l3 d10 l3, PS) | 7.62 % of control |
| GGCGGCGCAGGCGCGA (sugars l3 d10 l3, PS) | 49.6 % of control |
| GGCGGTGACTGCGA (sugars l3 d8 l3, PS) | 41.7 % of control |
| GGCGGTGACTGCGAG (sugars l3 d9 l3, PS) | 51.5 % of control |
| GGCGTTCTCGCGGAAG (sugars l3 d10 l3, PS) | 102 % of control |
